Results as given in PubChem BioAssay AID192 (DTP/NCI, 2004).
“And” between values parts separate entries of the source, which are not always exact repeats. Equal entries are not always repeated. Toxic doses and inconclusive results are not listed. Rule for the calls: active = survival T/C of 150% or more; inactive = T/C below 125% in these data.

System: BDF1 mice, B16 melanoma ip, median survival T/C
Assay: NCI In Vivo Anticancer Drug Screen. Data for tumor model B16 Melanoma (intraperitoneal) in B6D2F1 (BDF1) mice
Conditions: endpoint: median survival time, higher = longer survival
Procedure, shortened: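 Compounds were tested in mice carrying transplantable tumors. Survival or tumor size was recorded, and each value is the treated-group measurement (T) divided by that of the vehicle-treated control group (C).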

[1] = dose: 12.5 mg/kg/injection, schedule: Q01DX009 (ip), vehicle: saline with Tween-80
[2] = dose: 25.0 mg/kg/injection, schedule: Q01DX009 (ip), vehicle: saline with Tween-80
[3] = dose: 50.0 mg/kg/injection, schedule: Q01DX009 (ip), vehicle: saline with Tween-80
[4] = dose: 100.0 mg/kg/injection, schedule: Q01DX009 (ip), vehicle: saline with Tween-80
[5] = dose: 200.0 mg/kg/injection, schedule: Q01DX009 (ip), vehicle: saline with Tween-80
[6] = dose: 100.0 mg/kg/injection, schedule: Q01DX009 (ip), vehicle: Klucel (hydroxypropylcellulose) (HPC)
[7] = dose: 200.0 mg/kg/injection, schedule: Q01DX009 (ip), vehicle: Klucel (hydroxypropylcellulose) (HPC)
[8] = dose: 400.0 mg/kg/injection, schedule: Q01DX009 (ip), vehicle: Klucel (hydroxypropylcellulose) (HPC)
[9] = dose: 400.0 mg/kg/injection, schedule: Q01DX009 (ip), vehicle: saline with Tween-80
[10] = dose: 50.0 mg/kg/injection, schedule: Q01DX009 (ip), vehicle: Klucel (hydroxypropylcellulose) (HPC)
[11] = dose: 6.25 mg/kg/injection, schedule: Q01DX009 (ip), vehicle: saline with Tween-80
[12] = dose: 25.0 mg/kg/injection, schedule: Q01DX009 (ip), vehicle: saline
[13] = dose: 50.0 mg/kg/injection, schedule: Q01DX009 (ip), vehicle: saline
[14] = dose: 100.0 mg/kg/injection, schedule: Q04DX003 (ip), vehicle: saline with Tween-80
[15] = dose: 25.0 mg/kg/injection, schedule: Q01DX009 (ip), vehicle: Klucel (hydroxypropylcellulose) (HPC)

Measured: T/C

O=S(=O)(O)c1ccc2cccc(N=Nc3c(O)ccc4ccccc34)c2c1
inactive: [1] 105 % of control | [2] 102 % of control | [3] 91 % of control

Nc1nc(=S)c2ncn(C3CC(O)C(CO)O3)c2[nH]1 (stereo unspecified)
inactive: dose: 1.25 mg/kg/injection, schedule: Q01DX009 (ip), vehicle: saline with Tween-80 104 % of control | dose: 1.25 mg/kg/injection, schedule: Q01DX009 (ip), vehicle: saline 102 % of control | dose: 2.5 mg/kg/injection, schedule: Q01DX009 (ip), vehicle: saline with Tween-80 117 % of control | dose: 2.5 mg/kg/injection, schedule: Q01DX009 (ip), vehicle: saline 93 % of control | dose: 5.0 mg/kg/injection, schedule: Q01DX009 (ip), vehicle: saline with Tween-80 113 % of control | dose: 5.0 mg/kg/injection, schedule: Q01DX009 (ip), vehicle: saline 104 % of control | dose: 10.0 mg/kg/injection, schedule: Q01DX009 (ip), vehicle: saline 104 % of control | dose: 12.5 mg/kg/injection, schedule: Q01DX009 (ip), vehicle: saline sonified 112 % of control | dose: 20.0 mg/kg/injection, schedule: Q01DX009 (ip), vehicle: saline 100 % of control | dose: 25.0 mg/kg/injection, schedule: Q01DX009 (ip), vehicle: saline sonified 110 % of control | dose: 50.0 mg/kg/injection, schedule: Q01DX009 (ip), vehicle: saline sonified 87 % of control

O=c1[nH]c2ccccc2c2cc3ccccc3cc12
inactive: dose: 6.25 mg/kg/injection, schedule: Q01DX009 (ip), vehicle: saline 94 % of control | dose: 12.5 mg/kg/injection, schedule: Q01DX009 (ip), vehicle: saline 86 % of control

Cc1cc(NCCN(C(C)C)C(C)C)nc(/N=C(\N)Nc2ccc(Cl)c(C(F)(F)F)c2)n1
inactive: dose: 2.5 mg/kg/injection, schedule: Q04DX003 (ip), vehicle: Klucel (hydroxypropylcellulose) (HPC) 101 % of control | dose: 5.0 mg/kg/injection, schedule: Q01DX009 (ip), vehicle: Klucel (hydroxypropylcellulose) (HPC) 92 % of control | dose: 5.0 mg/kg/injection, schedule: Q04DX003 (ip), vehicle: Klucel (hydroxypropylcellulose) (HPC) 93 % of control | dose: 10.0 mg/kg/injection, schedule: Q01DX009 (ip), vehicle: Klucel (hydroxypropylcellulose) (HPC) 91 % of control | dose: 10.0 mg/kg/injection, schedule: Q04DX003 (ip), vehicle: Klucel (hydroxypropylcellulose) (HPC) 102 % of control | dose: 20.0 mg/kg/injection, schedule: Q04DX003 (ip), vehicle: Klucel (hydroxypropylcellulose) (HPC) 111 % of control

Cc1ccc(C(C)(N=[N+]=[N-])c2ccccc2)cc1C (stereo unspecified)
inactive: [2] 94 % of control | [3] 93 % of control | [4] 90 % of control | [5] 90 % of control

O=C(COc1ccc(Cl)cc1)NCCc1ccccc1
inactive: [6] 93 % of control | [7] 103 % of control | [8] 90 % of control

CC(=O)OCC(Br)C(Br)COC(C)=O (stereo unspecified)
inactive: [4] 100 % of control | [5] 97 % of control | [9] 97 % of control

CCCCn1cnc2c(N)ncnc21
inactive: dose: 12.5 mg/kg/injection, schedule: Q01DX009 (ip), vehicle: Klucel (hydroxypropylcellulose) (HPC) 92 % of control | [10] 87 % of control

CO[C@@H](C=O)O[C@@H](C=O)CO
inactive: [11] 100 % of control | [1] 108 % of control | dose: 12.5 mg/kg/injection, schedule: Q04DX003 (ip), vehicle: saline with Tween-80 96 % of control | [2] 103 % of control | [12] 107 % of control | dose: 25.0 mg/kg/injection, schedule: Q04DX003 (ip), vehicle: saline with Tween-80 108 % of control | [3] 124 % of control | [13] 100 % of control | dose: 50.0 mg/kg/injection, schedule: Q04DX003 (ip), vehicle: saline with Tween-80 102 % of control | dose: 50.0 mg/kg/injection, schedule: Q04DX003 (ip), vehicle: saline 104 % of control | [14] 100 % of control

CNC(=O)OCC(Cl)(Cl)Cl
inactive: dose: 75.0 mg/kg/injection, schedule: Q01DX009 (ip), vehicle: Klucel (hydroxypropylcellulose) (HPC) 102 % of control | dose: 150.0 mg/kg/injection, schedule: Q01DX009 (ip), vehicle: Klucel (hydroxypropylcellulose) (HPC) 114 % of control | dose: 300.0 mg/kg/injection, schedule: Q01DX009 (ip), vehicle: Klucel (hydroxypropylcellulose) (HPC) 102 % of control

O=[N+]([O-])c1ccc(/C=C2/c3cc(Cl)ccc3-c3c(Cl)cc(Cl)cc32)cc1
inactive: [11] 90 % of control | [2] 88 % of control

CC[N+]1(C2CCC3CCC2C3O)CCOCC1 (stereo unspecified)
inactive: [12] 105 % of control | [13] 105 % of control | dose: 100.0 mg/kg/injection, schedule: Q01DX009 (ip), vehicle: saline 105 % of control

O=[N+]([O-])OCc1c(Cl)nc(Cl)c(Cl)c1Cl
inactive: dose: 15.0 mg/kg/injection, schedule: Q01DX009 (ip), vehicle: Klucel (hydroxypropylcellulose) (HPC) 111 % of control | dose: 30.0 mg/kg/injection, schedule: Q01DX009 (ip), vehicle: Klucel (hydroxypropylcellulose) (HPC) 108 % of control | dose: 60.0 mg/kg/injection, schedule: Q01DX009 (ip), vehicle: Klucel (hydroxypropylcellulose) (HPC) 88 % of control

Cc1ccc(NC(=O)Oc2ccc(Br)cc2Br)c([N+](=O)[O-])c1
inactive: [1] 97 % of control | [2] 92 % of control | [3] 86 % of control

CCN(C(=O)Nc1ccc(Cl)cc1)c1ccccc1
inactive: [4] 94 % of control | [5] 97 % of control | [9] 92 % of control

C/C(C/C(C)=N/O)=N/O.C/C(C/C(C)=N/O)=N\O.[Cl][Rh][Cl]
inactive: [3] 96 % of control | [4] 98 % of control | [5] 96 % of control | [9] 92 % of control

Clc1ccc(/C=C2\c3cc(Cl)ccc3-c3c(Cl)cc(Cl)cc32)cc1
inactive: [11] 90 % of control

C#CC1(OCC2CN(c3ccccc3)C(=O)O2)CCCCC1 (stereo unspecified)
inactive: [15] 93 % of control | [10] 95 % of control | [6] 95 % of control | [14] 97 % of control | [7] 102 % of control | dose: 200.0 mg/kg/injection, schedule: Q04DX003 (ip), vehicle: saline with Tween-80 102 % of control | [8] 91 % of control | dose: 400.0 mg/kg/injection, schedule: Q04DX003 (ip), vehicle: saline with Tween-80 100 % of control

CCCNC(C)(C)C(SSS)c1cccs1 (stereo unspecified)
inactive: dose: 4.68 mg/kg/injection, schedule: Q04DX003 (ip), vehicle: saline 97 % of control | dose: 6.25 mg/kg/injection, schedule: Q01DX009 (ip), vehicle: alcohol 111 % of control | dose: 9.37 mg/kg/injection, schedule: Q04DX003 (ip), vehicle: saline 106 % of control | dose: 12.5 mg/kg/injection, schedule: Q01DX009 (ip), vehicle: alcohol 100 % of control | dose: 18.75 mg/kg/injection, schedule: Q04DX003 (ip), vehicle: saline 107 % of control | dose: 25.0 mg/kg/injection, schedule: Q01DX009 (ip), vehicle: alcohol 95 % of control | dose: 50.0 mg/kg/injection, schedule: Q01DX009 (ip), vehicle: alcohol 91 % of control

O=C(O)C1CCCCC1C(=O)Nc1ccc(F)cc1 (stereo unspecified)
inactive: [2] 105 % of control | [3] 105 % of control | [4] 88 % of control and 96 % of control

[Cu+2].[NH-]C(CC(=O)O)C(=O)O.[NH-]C(CC(=O)O)C(=O)O (stereo unspecified)
inactive: dose: 4.68 mg/kg/injection, schedule: Q01DX009 (ip), vehicle: saline 98 % of control | dose: 9.37 mg/kg/injection, schedule: Q01DX009 (ip), vehicle: saline 101 % of control

ClC(Cl)(Cl)C(Nc1ccccc1)Nc1ccccc1
inactive: dose: 6.25 mg/kg/injection, schedule: Q01DX009 (ip), vehicle: Klucel (hydroxypropylcellulose) (HPC) 89 % of control | [15] 86 % of control

O=C1/C(=C/c2ccc([N+](=O)[O-])cc2)CCc2ccccc21
inactive: dose: 12.5 mg/kg/injection, schedule: Q01DX009 (ip), vehicle: water 94 % of control | dose: 25.0 mg/kg/injection, schedule: Q01DX009 (ip), vehicle: water 97 % of control | dose: 50.0 mg/kg/injection, schedule: Q01DX009 (ip), vehicle: water 92 % of control | dose: 100.0 mg/kg/injection, schedule: Q01DX009 (ip), vehicle: water 92 % of control

N#CCc1ccc(Cl)c(Cl)c1
inactive: [11] 90 % of control | [1] 88 % of control | [2] 95 % of control
